Numbered stars: 1 amine (or outer) side, 2 acyl side, 3 side chain; on linkers, the order of the positions; unused ones are H or OH. Bridge positions count the residues as written; N and C are the ends. Square brackets hold non-standard residues; d marks the D form. Side chains are listed from the residue outwards. Peptide text beside a SMILES is read from it. * marks the point of attachment. ξ: configuration not given here. NH(CH2)2O(CH2)2NHDOTA = O=C(O)CN1CCN(CC(=O)O)CCN(CC(=O)NCCOCCN*)CCN(CC(=O)O)CC1; X4 = O=C(O)CN1CCN(CC(=O)O)CCN(CC(=O)N2CCc3cc(C(=O)*)ccc3C2)CCN(CC(=O)O)CC1; DOTA = O=C(O)CN1CCN(CC(=O)O)CCN(CC(=O)*)CCN(CC(=O)O)CC1; Azetidine3carboxylic = O=C(C1CN([*:1])C1)[*:2]; Pyridine(3,5-bisCH2) = c1ncc(C[*:2])cc1C[*:1]; γGlu = O=C(O)[C@H](CCC(=O)[*:2])N[*:1]; βAsp = O=C(O)[C@H](CC(=O)[*:2])N[*:1]; mXylylene = c1cc(C[*:1])cc(C[*:2])c1; Ethylenediamine = C(CN[*:2])N[*:1]; Decanoyl = CCCCCCCCCC(=O)*; CH2CH2 = C(C[*:2])[*:1]; Dap = NC[C@H](N)C(=O)O; Hexanoyl = CCCCCC(=O)*; CO = O=C([*:1])[*:2]; ξP = O=C(O)C1CCCN1; Ava = NCCCCC(=O)O; ξC = NC(CS)C(=O)O; NHBu = CCCCN*

These results are taken from patent US20260274894A1, “CYCLIC POLYPEPTIDE COMPOUND AND USE THEREOF” (BIVISION PHARMACEUTICALS, INC., priority 2023, published 2026).

In this test the target is T1, FAP protein (Homo sapiens, UniProt Q12884).
T1 construct: purchased Sinobiological
T1 sequence (Q12884 1-760): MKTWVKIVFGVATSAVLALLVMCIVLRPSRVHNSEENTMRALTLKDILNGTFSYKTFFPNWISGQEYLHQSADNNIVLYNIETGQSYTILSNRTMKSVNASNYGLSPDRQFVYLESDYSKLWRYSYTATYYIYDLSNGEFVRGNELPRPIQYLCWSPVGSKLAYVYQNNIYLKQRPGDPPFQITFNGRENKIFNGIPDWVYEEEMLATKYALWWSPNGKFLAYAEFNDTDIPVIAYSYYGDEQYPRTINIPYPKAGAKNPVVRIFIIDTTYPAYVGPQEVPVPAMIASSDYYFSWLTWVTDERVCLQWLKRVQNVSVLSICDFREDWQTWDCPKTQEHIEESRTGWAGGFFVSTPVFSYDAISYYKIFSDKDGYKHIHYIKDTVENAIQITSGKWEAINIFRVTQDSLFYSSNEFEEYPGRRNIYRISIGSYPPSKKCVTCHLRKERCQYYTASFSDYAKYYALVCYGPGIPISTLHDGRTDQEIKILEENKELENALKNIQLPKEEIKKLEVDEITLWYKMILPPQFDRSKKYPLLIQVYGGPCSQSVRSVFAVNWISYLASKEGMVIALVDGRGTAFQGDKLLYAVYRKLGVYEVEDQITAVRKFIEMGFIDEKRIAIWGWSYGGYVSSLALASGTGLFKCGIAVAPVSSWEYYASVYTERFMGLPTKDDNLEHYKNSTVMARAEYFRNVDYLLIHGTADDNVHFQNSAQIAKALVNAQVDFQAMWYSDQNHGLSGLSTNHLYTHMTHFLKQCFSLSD
The test can be described thus: Biacore test of compound affinity to FAP protein. The conditions noted are these: Biacore 8K, SA chip, 15° C., 1:1 binding model; read-out: pKD (FAP) (converted). As for the experimental part:
The Biacore 8K (Cytiva) instrument was used to detect ligand binding of the FAP protein (Sinobiological). FAP protein was captured on the SA chip. […] The sensor surface was conditioned by injecting 1M NaCl three consecutive times in 50 mM NaOH. After each ligand injection, additional cleaning was performed using isopropanol in 1M NaCl and 50 mM NaOH (flow path 1 and 2, flow rate of 10 μL/min, injection time of 60 s). […] The analyte was run under the following conditions: analysis temperature of 15° C., analysis step=all set to LMW kinetics; cycle type=single cycle (contact time of 90 s, dissociation time of 1800 s, flow rate of 30 μL/min, flow channels 1 and 2); channel detection=2-1. Data was evaluated using the Biacore Insight Evaluation Software, and the data were fitted to a 1:1 binding model. The Biacore results are shown in Table 2 below: pKD=−Log KD, where KD is the binding affinity of the compound to the FAP protein as measured by Biacore.
A general note: SPR reads the build-up and loss of mass on a sensor chip optically.
As for `CCCCNC(=O)N[C@H]1CSCc2cncc(c2)CSCC(C(=O)N[C@@H](CCC(=O)NCCOCCNC(=O)CN2CCN(CC(=O)O)CCN(CC(=O)O)CCN(CC(=O)O)CC2)C(=O)O)NC(=O)[C@H](Cc2ccccc2)NC(=O)[C@H](CCC(N)=O)NC(=O)[C@H]([C@@H](C)O)NC(=O)C2CCCN2C(=O)C2CN(C2)C1=O` (stereo partly drawn) [JHDC33, nBu-urea-[Cys(3MePy)-hhy39-Pro-Thr-Gln-Phe-Cys]-Glu-(DAPEG2-DOTA)-OH] ({NHBu-CO}-C[Azetidine3carboxylic][ξP]TQF[ξC]E(NH(CH2)2O(CH2)2NHDOTA)-OH; linker 1-7 via Pyridine(3,5-bisCH2)), the Kd was 10 to 100 nM.

Turning to `CCCCCCCCCC(=O)N[C@H]1CSCc2cccc(c2)CSC[C@@H](C(=O)N[C@@H](CCC(=O)N[C@@H](CCCNC(=N)N)C(=O)NCC(=O)N[C@@H](CC(=O)NCCNC(=O)CN2CCN(CC(=O)O)CCN(CC(=O)O)CCN(CC(=O)O)CC2)C(=O)O)C(=O)O)NC(=O)[C@H](Cc2ccccc2)NC(=O)[C@H](CCC(N)=O)NC(=O)[C@H]([C@@H](C)O)NC(=O)[C@@H]2CCCN2C(=O)C2CN(C2)C1=O` [JHDC18, Dec[Cys(3MeBn)-hhy39-Pro-Thr-Gln-Phe-Cys]-Glu-(Arg-Gly-Asp(EDA-DOTA))-OH] (Decanoyl-C[Azetidine3carboxylic]PTQFC[γGlu]RG[βAsp]-{Ethylenediamine-DOTA}; linker 1-7 via mXylylene), the Kd was 10 to 100 nM.

Regarding `CCCCNC(=O)N[C@H]1CSCc2cccc(c2)CSCC(C(=O)N[C@@H](CNC(=O)CCCCNC(=O)CN2CCN(CC(=O)O)CCN(CC(=O)O)CCN(CC(=O)O)CC2)C(=O)O)NC(=O)[C@H](Cc2ccccc2)NC(=O)[C@H](CCC(N)=O)NC(=O)[C@H]([C@@H](C)O)NC(=O)C2CCCN2C(=O)C2CN(C2)C1=O` (stereo partly drawn) [JHDC41, nBu-urea-[Cys(3MeBn)-hhy39-Pro-Thr-Gln-Phe-Cys]-DAPA-(APTA-DOTA)-OH] ({NHBu-CO}-C[Azetidine3carboxylic][ξP]TQF[ξC][Dap]([Ava-DOTA])-OH; linker 1-7 via mXylylene), the Kd is 10 to 100 nM.

For the molecule `CCCCCC(=O)N[C@H]1CSCCSCC(C(=O)N[C@@H](CCC(=O)NCCOCCNC(=O)CN2CCN(CC(=O)O)CCN(CC(=O)O)CCN(CC(=O)O)CC2)C(=O)O)NC(=O)[C@H](Cc2ccccc2)NC(=O)[C@H](CCC(N)=O)NC(=O)[C@H]([C@@H](C)O)NC(=O)C2CCCN2C(=O)C2CN(C2)C1=O` (stereo partly drawn) [JHDC27, Hex[Cys(ethylene)-hhy39-Pro-Thr-Gln-Phe-Cys]-Glu-(DAPEG2-DOTA)-OH] (Hexanoyl-C[Azetidine3carboxylic][ξP]TQF[ξC]E(NH(CH2)2O(CH2)2NHDOTA)-OH; linker 1-7 via CH2CH2), the Kd was 10 to 100 nM.

Regarding `CCCCCC(=O)N[C@H]1CCCCn2cc(nn2)CSC[C@@H](C(=O)N[C@@H](CCCCNC(=O)COCCNC(=O)CN2CCN(CC(=O)O)CCN(CC(=O)O)CCN(CC(=O)O)CC2)C(=O)O)NC(=O)[C@H](Cc2ccccc2)NC(=O)[C@H](CCC(N)=O)NC(=O)[C@H]([C@@H](C)O)NC(=O)[C@@H]2CCCN2C(=O)C2CN(C2)C1=O` [JHDC12, Hex[2AHA(Triazole)-hhy39-Pro-Thr-Gln-Phe-CSMC]-Lys-(AEAA-DOTA)-OH], the Kd was 10 to 100 nM.

Regarding `CCCCCC(=O)N[C@H]1CSCc2cccc(c2)CSCC(C(=O)N[C@@H](CCC(=O)NCCNC(=O)c2ccc3c(c2)CCN(C(=O)CN2CCN(CC(=O)O)CCN(CC(=O)O)CCN(CC(=O)O)CC2)C3)C(=O)O)NC(=O)[C@H](Cc2ccccc2)NC(=O)[C@H](CCC(N)=O)NC(=O)[C@H]([C@@H](C)O)NC(=O)C2CCCN2C(=O)C2CN(C2)C1=O` (stereo partly drawn) [JHDC25, Hex[Cys(3MeBn)-hhy39-Pro-Thr-Gln-Phe-Cys]-Glu-(EDA-hhy02-DOTA)-OH] (Hexanoyl-C[Azetidine3carboxylic][ξP]TQF[ξC]E([Ethylenediamine-X4])-OH; linker 1-7 via mXylylene), the Kd is 10 to 100 nM.
